The values below come from paper PMC10325900, “A conserved motif in the disordered linker of human MLH1 is vital for DNA mismatch repair and its function is diminished by a cancer family mutation” (Nucleic Acids Research, 2023).

For this experiment, the system named is MLH1 variant p.Arg385Pro and PMS2. Description: MMR complementation assay with peptide, MLH1 p.Arg385Pro variant. It is filed as biochemical, human. The conditions noted are these: ConMot-32 at 0, 7.5, 18 and 75 μM. How it is done:
Mismatch repair activity was assessed as described in detail before ([79],[81]) (Supplementary Figure S3). […] Mismatched DNA plasmid substrate (Supplementary Figure S3) prepared according to previously published procedures ([81–83]) was added, and reactions in a final volume of 25 μl were incubated at 37°C for 15 min. Repair efficiency was scored by purifying the mismatched DNA plasmid from the reaction and assessing the fraction of homoduplex sequence by restriction digestion of the mismatched site using EcoRV. The substrate was additionally linearized with AseI.
For complementation assays with peptide, the indicated peptide(s) were used at stock concentrations of 50 or 500 μM in HEPES–KOH 20 mM pH 7.6 and supplemented to the MMR reactions.
In an identical way, we analyzed the effects of the ConMot peptide on MMR activity of the defective human MLH1 missense variant p.Arg385Pro (Figure 5).
Figure 5. […] Several MMR assays were performed; a representative agarose gel is shown (top), and average MMR activity values and standard deviations of three independent experiments were calculated (bottom). […]
In parallel, the single- strand nick is ligated. […] 40- 80% absolute repair, determined as signal intensities of the repair bands divided by sum of signal intensities of all plasmid bands, are optimally achieved and allow accurate determination of MMR activity of variants. […]

Entries after “also recorded” stand apart in the source; their conditions may differ. No end group written: not given here.

“SGSSDKVYAHQMVRTDSREQKLDAFLQPLSKP [ConMot-32]”: the “peptide concentrations required for restoration of p.Arg385Pro variant, compared with ConMot-deletion variant” value is reported as “identical peptide concentrations as with the ConMot-deletion variant”. Further, the “restoration of DNA mismatch repair activity of the p.Arg385Pro variant” value (37°C, 15 min, average of three independent experiments, listed as ConMot peptide) is “Restoration of MMR activity was again observed; also recorded: could be overcome”.
